Measured values: ChEMBL document CHEMBL1287669, “Inhibitors selective for HDAC6 in enzymes and cells” (Bioorg Med Chem Lett, 2010)
Active and inactive are the calls of the source. No cut-off for these calls is given here.

Columns and labels:
[1] = target: T1, Protein deacetylase HDAC6 (Homo sapiens) (UniProt Q9UBN7); assay: Inhibition of recombinant human HDAC6 at 1 uM using Boc-Lys(Ac)-AMC as substrate by fluorometric analysis
T1 sequence (whole entry): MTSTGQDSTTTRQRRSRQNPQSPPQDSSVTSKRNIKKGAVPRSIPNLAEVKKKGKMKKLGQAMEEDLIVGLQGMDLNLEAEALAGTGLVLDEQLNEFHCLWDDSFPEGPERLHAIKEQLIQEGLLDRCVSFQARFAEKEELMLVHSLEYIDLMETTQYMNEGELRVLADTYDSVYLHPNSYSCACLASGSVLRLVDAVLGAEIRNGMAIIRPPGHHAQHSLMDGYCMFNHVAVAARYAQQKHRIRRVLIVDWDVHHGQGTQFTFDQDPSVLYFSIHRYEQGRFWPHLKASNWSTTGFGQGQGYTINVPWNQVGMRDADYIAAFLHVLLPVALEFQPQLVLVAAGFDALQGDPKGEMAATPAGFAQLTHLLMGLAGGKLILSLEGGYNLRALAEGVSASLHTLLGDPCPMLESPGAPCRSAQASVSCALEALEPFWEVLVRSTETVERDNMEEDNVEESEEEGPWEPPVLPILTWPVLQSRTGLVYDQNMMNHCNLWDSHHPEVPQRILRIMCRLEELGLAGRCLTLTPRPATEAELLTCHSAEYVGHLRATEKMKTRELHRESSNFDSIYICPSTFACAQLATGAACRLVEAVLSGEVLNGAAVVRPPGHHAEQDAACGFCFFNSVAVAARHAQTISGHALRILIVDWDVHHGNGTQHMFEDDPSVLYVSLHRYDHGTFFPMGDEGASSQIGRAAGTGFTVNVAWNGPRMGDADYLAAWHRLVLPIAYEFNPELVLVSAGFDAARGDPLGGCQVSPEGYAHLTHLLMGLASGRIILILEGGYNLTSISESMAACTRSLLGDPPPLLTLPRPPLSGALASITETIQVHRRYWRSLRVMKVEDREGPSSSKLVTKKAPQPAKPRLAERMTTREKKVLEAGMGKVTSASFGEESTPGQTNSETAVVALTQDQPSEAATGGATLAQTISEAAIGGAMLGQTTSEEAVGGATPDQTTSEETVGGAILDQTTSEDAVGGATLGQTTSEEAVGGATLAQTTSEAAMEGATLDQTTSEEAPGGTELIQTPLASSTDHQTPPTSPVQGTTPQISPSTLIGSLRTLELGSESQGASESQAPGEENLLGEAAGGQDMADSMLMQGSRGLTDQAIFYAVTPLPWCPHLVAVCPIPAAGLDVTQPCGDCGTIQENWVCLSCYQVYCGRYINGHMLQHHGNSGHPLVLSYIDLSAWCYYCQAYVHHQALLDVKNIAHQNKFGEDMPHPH

[2] = target: T2, Protein deacetylase HDAC6 (Homo sapiens, UniProt Q9UBN7); assay: Inhibition of recombinant human HDAC6 using Boc-Lys(Ac)-AMC as substrate by fluorometric analysis
T2 sequence (Q9UBN7 whole entry): T1 sequence (whole entry)

Histone deacetylase 1 [3] = target: T3, Histone deacetylase 1 (Homo sapiens, UniProt Q13547); assay: Inhibition of recombinant human HDAC1 using Cbz-Lys(TFAc)-AMC as substrate by fluorometric analysis
T3 sequence (Q13547 whole entry): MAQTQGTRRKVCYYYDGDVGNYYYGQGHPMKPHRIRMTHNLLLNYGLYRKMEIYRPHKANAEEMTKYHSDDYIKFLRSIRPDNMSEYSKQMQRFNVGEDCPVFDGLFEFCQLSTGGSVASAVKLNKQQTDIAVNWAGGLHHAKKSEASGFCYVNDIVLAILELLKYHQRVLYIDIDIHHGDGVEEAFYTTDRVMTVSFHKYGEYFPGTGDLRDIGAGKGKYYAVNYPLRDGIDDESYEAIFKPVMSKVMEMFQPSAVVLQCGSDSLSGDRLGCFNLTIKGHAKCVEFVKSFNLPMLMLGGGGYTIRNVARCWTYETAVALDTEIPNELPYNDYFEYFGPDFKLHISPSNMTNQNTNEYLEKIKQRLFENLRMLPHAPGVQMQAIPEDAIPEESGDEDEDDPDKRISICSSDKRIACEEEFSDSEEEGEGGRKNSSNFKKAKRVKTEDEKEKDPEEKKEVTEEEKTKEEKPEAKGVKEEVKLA

Histone deacetylase 1 [4] = target: T3, Histone deacetylase 1; assay: Inhibition of recombinant human HDAC1 using Ac-RHKK(Ac)-ACC as substrate by fluorometric analysis
[5] = target: T2, Protein deacetylase HDAC6; assay: Inhibition of recombinant human HDAC6 using Ac-RHKK(Ac)-ACC as substrate by fluorometric analysis
Homo sapiens = species: Homo sapiens; assay: Selectivity index, IC50 for recombinant human HDAC6 to IC50 for recombinant human HDAC1
Histone deacetylase 1 [6] = target: T3, Histone deacetylase 1; assay: Inhibition of human HDAC1 in PMA-differentiated THP1 cells assessed as hyperacetylation of histone H3 after 4 hrs by Western blotting; assay type: cell-based; conditions: THP-1

SMILES	inhibition [1] [%]	IC50 [2] [nM]	IC50 (Histone deacetylase 1 [3]) [nM]	also measured
CC(C)(C)OC(=O)N[C@@H](CCCCCCO)C(=O)NC1CCCC1	3	–	–	–
O=C(CCCCC[C@H](NC(=O)c1cc2ccccc2[nH]1)C(=O)Nc1cccc2cccnc12)NO	–	107	48	–
CC(C)(C)OC(=O)Nc1ccc(-c2cc(C(=O)NCCCCCCC(=O)NO)no2)cc1	–	–	340	IC50 (Histone deacetylase 1 [4]): 3570 nM
CC(C)(C)OC(=O)N[C@@H](CCCCO)C(=O)NC1CCCC1	50	–	–	–
CC(C)(C)OC(=O)N[C@@H](CCCCCC(=O)O)C(=O)NC1CCCC1	45	–	–	–
CC(C)(C)OC(=O)N[C@@H](CCCCCC(=O)NO)C(=O)NC1CCCC1	99	26	1420	IC50 (Histone deacetylase 1 [4]): 3570 nM; IC50 [5]: 27 nM
CC(C)(C)OC(=O)N[C@@H](CCCCCCS)C(=O)NC1CCCC1	60	–	–	–
O=C(CCCCCn1c2ccccc2c2ccccc21)NO	–	–	–	IC50 (Histone deacetylase 1 [4]): 3070 nM; Ratio IC50 (Homo sapiens): 74; IC50 [5]: 41 nM
COC(=O)CCCCC[C@H](NC(=O)OCc1ccccc1)C(=O)NC1CCCC1	65	–	–	–
COC(=O)CCCC[C@H](NC(=O)OC(C)(C)C)C(=O)NC1CCCC1	40	–	–	–
CC(C)(C)OC(=O)N[C@@H](CCCCCO)C(=O)NC1CCCC1	80	240	> 10000	–
CN(C)c1ccc(C(=O)N[C@@H](CCCCCC(=O)NO)C(=O)Nc2cccc3cccnc23)cc1	–	943	21	–
CC(C)(C)OC(=O)N[C@@H](CCCCCS)C(=O)NC1CCCC1	98	54	1730	inhibition (Histone deacetylase 1 [6]): Active
O=C(O)CCCC[C@H](NC(=O)OCc1ccccc1)C(=O)NC1CCCC1	20	–	–	–
O=C(O)CCCCC[C@H](NC(=O)OCc1ccccc1)C(=O)NC1CCCC1	40	–	–	–
COC(=O)CCCCC[C@H](NC(=O)OC(C)(C)C)C(=O)NC1CCCC1	60	–	–	–
